Ki and Kd data for one compound are collected here from PMC5440690, “Sirt1 carboxyl-domain is an ATP-repressible domain that is transferrable to other proteins” (Nature Communications, 2017).

Test [1] deals with T1, 2A Sirt1 (Mus musculus, UniProt Q923E4, S649A/S651A).
T1 construct: full-length recombinant 2A Sirt1
T1 sequence (Q923E4 1-737 S649A/S651A): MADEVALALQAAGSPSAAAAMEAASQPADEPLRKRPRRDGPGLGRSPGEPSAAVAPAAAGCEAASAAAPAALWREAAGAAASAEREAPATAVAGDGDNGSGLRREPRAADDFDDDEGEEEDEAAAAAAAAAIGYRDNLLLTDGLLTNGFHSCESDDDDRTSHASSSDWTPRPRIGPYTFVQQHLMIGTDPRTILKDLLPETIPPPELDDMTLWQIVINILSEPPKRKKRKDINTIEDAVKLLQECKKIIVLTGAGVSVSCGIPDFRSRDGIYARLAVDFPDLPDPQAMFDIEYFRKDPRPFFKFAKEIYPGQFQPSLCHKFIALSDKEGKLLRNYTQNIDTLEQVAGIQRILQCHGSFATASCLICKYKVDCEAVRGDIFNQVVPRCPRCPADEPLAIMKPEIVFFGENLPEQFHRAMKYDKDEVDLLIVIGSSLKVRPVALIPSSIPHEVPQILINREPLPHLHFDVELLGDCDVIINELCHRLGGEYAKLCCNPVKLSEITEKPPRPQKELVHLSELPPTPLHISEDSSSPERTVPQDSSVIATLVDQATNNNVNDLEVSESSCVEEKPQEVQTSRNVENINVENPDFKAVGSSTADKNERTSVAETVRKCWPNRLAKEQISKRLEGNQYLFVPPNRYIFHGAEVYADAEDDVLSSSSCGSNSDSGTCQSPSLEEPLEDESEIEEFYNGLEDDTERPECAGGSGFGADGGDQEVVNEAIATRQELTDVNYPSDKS
In words: deacetylation of [3H]Ac-H4, inhibition kinetics (Kii); weakened ATP-agarose binding. Type of test: biochemical.

In test [2] the target is T2, Sirt1 (Mus musculus, UniProt Q923E4).
T2 construct: full-length recombinant Sirt1
T2 sequence (Q923E4 2-737): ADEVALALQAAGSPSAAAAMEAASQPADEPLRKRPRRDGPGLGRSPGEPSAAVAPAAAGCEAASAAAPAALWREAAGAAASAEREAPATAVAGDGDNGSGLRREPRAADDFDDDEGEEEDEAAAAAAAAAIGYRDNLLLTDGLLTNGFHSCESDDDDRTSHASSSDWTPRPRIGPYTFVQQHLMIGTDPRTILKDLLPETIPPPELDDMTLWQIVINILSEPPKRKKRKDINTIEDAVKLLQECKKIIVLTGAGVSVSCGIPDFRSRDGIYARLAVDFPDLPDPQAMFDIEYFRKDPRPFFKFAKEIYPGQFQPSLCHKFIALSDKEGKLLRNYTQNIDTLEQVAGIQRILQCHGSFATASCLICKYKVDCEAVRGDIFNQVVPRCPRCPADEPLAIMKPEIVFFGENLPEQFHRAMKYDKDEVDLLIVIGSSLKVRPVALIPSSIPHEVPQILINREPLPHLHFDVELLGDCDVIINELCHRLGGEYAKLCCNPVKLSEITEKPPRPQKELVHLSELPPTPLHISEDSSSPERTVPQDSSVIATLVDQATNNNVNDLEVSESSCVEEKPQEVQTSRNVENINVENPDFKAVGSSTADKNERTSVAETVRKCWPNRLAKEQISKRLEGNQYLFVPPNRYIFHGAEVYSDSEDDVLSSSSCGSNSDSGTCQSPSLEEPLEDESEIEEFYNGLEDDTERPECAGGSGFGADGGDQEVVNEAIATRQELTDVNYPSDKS
Nature of the test: gel-filtration (spin column) binding with [γ-32P]ATP; also ATP-agarose pull-down with free ATP competition, and enzyme inhibition.

Regarding `Nc1ncnc2c1ncn2[C@@H]1O[C@H](COP(=O)(O)OP(=O)(O)OP(=O)(O)O)[C@@H](O)[C@H]1O` [ATP], the affinity in test [1] corresponds to a Ki of 6.45 ± 0.51 mM. Besides, the Kd (usually the equilibrium constant for the complex coming apart) in test [2] was roughly 4.6 mM.
